Key:
[1] = tested on: golden hamster with non-alcoholic fatty liver disease induced by high-fat diet; assay: Body weight and liver coefficient of golden hamster with non-alcoholic fatty liver disease induced by high-fat diet; assay type: in vivo, Syrian golden hamster; details: n = 10, mean ± standard error
Procedure: The animals were fasted overnight before the end of the experiment, anesthetized by intraperitoneal injection of 3% pentobarbital sodium, the abdominal cavity was exposed, and the liver was rapidly separated after blood was taken from the aorta abdominalis. One liver lobe was preserved, and two pieces of 1×1 cm^3 pieces were cut at a fixed site, one piece was embedded in OCT, quickly frozen in liquid nitrogen, and stored in liquid nitrogen or at −80° C.; and the other piece was placed in a 4% paraformaldehyde stationary liquid and stored at 4° C.

[2] = tested on: golden hamster with non-alcoholic fatty liver disease induced by high-fat diet; assay: Liver function (serum ALT, AST) of golden hamster with non-alcoholic fatty liver disease induced by high-fat diet; details: n = 10; for GPT: serum ALT; for GOT: serum AST
Procedure: (§1) After 5 days of adaptive feeding, animals were randomly divided into a normal control group (n=15), a high-fat diet group (n=15), an IMMH007 low-dose group (25 mg/kg, n=15), an IMMH007 medium-dose group (50 mg/kg, n=15), and an IMMH007 high-dose group (100 mg/kg, n=15), and given intragastric administration twice daily.
(§2) The animals were fasted for 12 hours, and 0.5 ml blood was collected from the angular vein and allowed to stand for 60 min, and centrifuged at 6000 g for 10 min, and the supernatant was aspirated as much as possible, and then centrifuged at 6000 g for 10 min. The absorbance values were measured according to the instructions of the total cholesterol (TC), triglycerides (TG), aspartate aminotransferase (AST), and alanine aminotransferase (ALT) kits, and the concentration of each index was calculated. 50 ul serum was mixed with 50 ul PEG6000 in a ratio of 1:1, vortexed uniformly, allowed to stand for 10 min, and centrifuged at 1900 g for 20 min at room temperature, and the supernatant was carefully pipetted, stored at 4° C., and measured for high density lipoprotein cholesterol (HDL-C) according to the instructions of the total cholesterol (TC) kit. The plasma low density lipoprotein (LDL) level was calculated by subtracting HDL-C and 0.2-fold TG levels from plasma total cholesterol TC, ie, LDL=TC-HLD-0.2TG.

[3] = tested on: golden hamster with non-alcoholic fatty liver disease induced by high-fat diet; assay: Lipid content in liver tissue of golden hamster with non-alcoholic fatty liver disease induced by high-fat diet; assay type: in vivo, Syrian golden hamster; details: n = 10
Procedure: 100 mg liver tissue was accurately weighed, and added with a triglyceride detection lysate, the tissue was homogenized by a homogenizer in an ice bath to no significant tissue mass, placed on ice for 5 min, transferred to a 1.5 ml centrifuge tube, and centrifuged at 14000 g for 10 min at 4° C., the supernatant was transferred and a portion of the supernatant was taken for protein quantification, and detected for its lipid content according to the instructions of the TC and TG detection kits.

[4] = tested on: golden hamster with non-alcoholic fatty liver disease induced by high-fat diet; details: in vivo
Procedure: as §1, §2

[5] = tested on: golden hamster with non-alcoholic fatty liver disease induced by high-fat diet; assay: Serum lipid indexes of golden hamster with non-alcoholic fatty liver disease induced by high-fat diet; assay type: in vivo, Syrian golden hamster; details: n = 10; for LDL-C: calculated LDL=TC-HDL-0.2TG
Procedure: as §1, §2

`CC(=O)OCC1OC(n2cnc3c(Nc4cccc(O)c4)ncnc32)C(OC(C)=O)C1OC(C)=O` (stereo not shown) [IMM-H007, triacetyl-3-hydroxyphenyladenosine] was tested, and the “Body Weight” value ([1]; IMM-H007 50 mg/kg) was 170 ± 11, the “Liver Organ Coefficient” value ([1]; IMM-H007 50 mg/kg) was 0.0313 ± 0.002 and the “Liver Organ Coefficient” value ([1]; IMM-H007 100 mg/kg) was 0.0291 ± 0.003. The “Body Weight” value ([1]; IMM-H007 100 mg/kg, in g (unit assumed)) was 177 ± 9, the “Body Weight” value ([1]; IMM-H007 200 mg/kg) was 166 ± 12 and the “Liver Organ Coefficient” value ([1]; IMM-H007 200 mg/kg) was 0.0298 ± 0.002. For the same molecule, the GPT ([2]; IMM-H007 50 mg/kg) was 21.1 ± 5.2 U/L, the GPT ([2]; IMM-H007 100 mg/kg) was 20.9 ± 8.0 U/L and the GPT ([2]; IMM-H007 200 mg/kg) was 12.4 ± 3.1 U/L. For the same molecule, the GOT ([2]; IMM-H007 50 mg/kg) was 9.4 ± 1.7 U/L, the GOT ([2]; IMM-H007 100 mg/kg) was 8.4 ± 2.3 U/L and the GOT ([2]; IMM-H007 200 mg/kg) was 7.2 ± 2.1 U/L. It also gave a TC ([3]; IMM-H007 50 mg/kg) of 2.8 ± 0.8 µmol/g protein, a TG ([3]; IMM-H007 50 mg/kg) of 3.6 ± 0.1 µmol/g protein and a TC ([3]; IMM-H007 100 mg/kg) of 2.4 ± 0.4 µmol/g protein. The TG ([3]; IMM-H007 100 mg/kg) was 3.3 ± 0.1 µmol/g protein, the TC ([3]; IMM-H007 200 mg/kg) was 1.8 ± 0.8 µmol/g protein and the TG ([3]; IMM-H007 200 mg/kg) was 2.8 ± 0.1 µmol/g protein. For the same molecule, the “Effect on the liver as concluded from serum ALT and AST” value [4] was “good hepatic protective effect”, the FFA ([5]; IMM-H007 50 mg/kg) was 2324.6 ± 783.4 μEq/L and the HDL-C ([5]; IMM-H007 50 mg/kg) was 2.8 ± 0.4 mmol/L. The TC ([5]; IMM-H007 50 mg/kg) was 7.9 ± 1.0 mmol/L, the TG ([5]; IMM-H007 50 mg/kg) was 4.7 ± 1.9 mmol/L and the FFA ([5]; IMM-H007 100 mg/kg) was 1889.5 ± 386.5 μEq/L. For the same molecule, the HDL-C ([5]; IMM-H007 100 mg/kg) was 2.8 ± 0.2 mmol/L, the TC ([5]; IMM-H007 100 mg/kg) was 7.0 ± 1.0 mmol/L and the TG ([5]; IMM-H007 100 mg/kg) was 4.3 ± 1.4 mmol/L. For the same molecule, the FFA ([5]; IMM-H007 200 mg/kg) was 1497.6 ± 326.2 μEq/L, the HDL-C ([5]; IMM-H007 200 mg/kg) was 2.6 ± 0.5 mmol/L and the TC ([5]; IMM-H007 200 mg/kg) was 6.7 ± 1.0 mmol/L. The TG ([5]; IMM-H007 200 mg/kg) was 2.7 ± 0.8 mmol/L, the LDL-C ([5]; IMM-H007 50 mg/kg) was 4.1 ± 1.2 mmol/L and the LDL-C ([5]; IMM-H007 100 mg/kg) was 4.0 ± 0.7 mmol/L. For the same molecule, the LDL-C ([5]; IMM-H007 200 mg/kg) was 3.3 ± 0.5 mmol/L.

Source: patent US11058703B2, “Application of triacetyl-3-hydroxyphenyladenosine in preparation of pharmaceutical drug for preventing or treating non-alcoholic fatty liver disease” (priority 2015, dated 2021)
